In patent US20220040129A1, “TREATMENT OF HYPERAMMONEMIA IN PATIENTS WITH RENAL INSUFFICIENCY” (RECORDATI S.p.A., priority 2019, published 2022):

Tests used:
Test in all cases: In vitro transporter inhibition
Format in all cases: in vitro ADME
human BCRP = target: T1, human BCRP (Homo sapiens, UniProt Q9UNQ0)
T1 sequence (Q9UNQ0 1-655): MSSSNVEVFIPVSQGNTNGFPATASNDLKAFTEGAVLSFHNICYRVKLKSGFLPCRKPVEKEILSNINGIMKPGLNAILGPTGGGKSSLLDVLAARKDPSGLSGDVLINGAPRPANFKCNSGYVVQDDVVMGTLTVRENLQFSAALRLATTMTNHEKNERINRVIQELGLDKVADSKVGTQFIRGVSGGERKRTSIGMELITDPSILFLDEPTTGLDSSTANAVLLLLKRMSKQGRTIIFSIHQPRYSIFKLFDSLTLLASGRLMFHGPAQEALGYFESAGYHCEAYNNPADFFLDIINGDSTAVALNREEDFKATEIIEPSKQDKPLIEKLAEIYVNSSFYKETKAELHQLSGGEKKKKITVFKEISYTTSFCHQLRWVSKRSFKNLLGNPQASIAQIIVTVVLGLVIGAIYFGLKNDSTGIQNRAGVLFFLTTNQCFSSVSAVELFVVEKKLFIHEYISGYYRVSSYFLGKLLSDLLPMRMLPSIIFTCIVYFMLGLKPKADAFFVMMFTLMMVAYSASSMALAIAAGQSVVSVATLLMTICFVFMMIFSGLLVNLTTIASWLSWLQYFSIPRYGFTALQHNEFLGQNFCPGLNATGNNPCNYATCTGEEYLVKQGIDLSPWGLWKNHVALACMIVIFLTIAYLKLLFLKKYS
Method: (§1) In vitro drug interaction studies were performed with human transporters. […] Potential interactions with inhibitors of the OAT1 transporter were considered clinically irrelevant.

human MATE2-K = human MATE2-K (Homo sapiens, UniProt Q86VL8)
human MATE2-K, sequence (Q86VL8 1-566 isoform Q86VL8-3): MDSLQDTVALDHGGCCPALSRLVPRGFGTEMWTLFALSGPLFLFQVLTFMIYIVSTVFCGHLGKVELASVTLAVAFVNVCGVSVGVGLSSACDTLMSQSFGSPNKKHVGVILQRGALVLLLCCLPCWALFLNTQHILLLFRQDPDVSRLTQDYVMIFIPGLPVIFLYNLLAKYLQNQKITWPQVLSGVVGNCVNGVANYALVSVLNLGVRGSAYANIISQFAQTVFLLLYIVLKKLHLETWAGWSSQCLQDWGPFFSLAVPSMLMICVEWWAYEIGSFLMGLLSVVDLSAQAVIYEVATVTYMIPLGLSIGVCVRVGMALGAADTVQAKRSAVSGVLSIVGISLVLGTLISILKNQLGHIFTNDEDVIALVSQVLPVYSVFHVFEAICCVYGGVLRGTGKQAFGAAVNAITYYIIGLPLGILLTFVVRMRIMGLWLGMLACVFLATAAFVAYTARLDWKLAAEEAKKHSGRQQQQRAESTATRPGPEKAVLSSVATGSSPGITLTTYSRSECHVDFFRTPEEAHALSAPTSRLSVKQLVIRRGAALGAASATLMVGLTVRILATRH
Method: as §1

human OCT2 = target: T2, human OCT2 (Homo sapiens, UniProt O15244)
T2 sequence (O15244 1-555): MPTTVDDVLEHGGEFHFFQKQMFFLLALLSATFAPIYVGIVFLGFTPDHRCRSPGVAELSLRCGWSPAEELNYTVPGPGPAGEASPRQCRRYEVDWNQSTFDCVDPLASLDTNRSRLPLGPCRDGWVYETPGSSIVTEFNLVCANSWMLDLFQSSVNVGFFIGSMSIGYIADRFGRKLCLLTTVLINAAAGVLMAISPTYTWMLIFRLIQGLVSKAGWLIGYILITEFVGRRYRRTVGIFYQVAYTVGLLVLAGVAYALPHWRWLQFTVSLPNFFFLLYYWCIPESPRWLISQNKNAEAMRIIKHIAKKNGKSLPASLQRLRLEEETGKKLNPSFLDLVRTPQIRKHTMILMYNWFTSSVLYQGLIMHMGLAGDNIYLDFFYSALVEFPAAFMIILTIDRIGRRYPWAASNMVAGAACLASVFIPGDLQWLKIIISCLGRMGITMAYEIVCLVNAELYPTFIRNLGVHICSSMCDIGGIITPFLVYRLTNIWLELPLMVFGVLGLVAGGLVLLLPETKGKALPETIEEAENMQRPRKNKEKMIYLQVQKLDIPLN
Method: as §1

human OATP1B3 = target: T3, human OATP1B3 (Homo sapiens, UniProt Q9NPD5)
T3 sequence (Q9NPD5 1-702): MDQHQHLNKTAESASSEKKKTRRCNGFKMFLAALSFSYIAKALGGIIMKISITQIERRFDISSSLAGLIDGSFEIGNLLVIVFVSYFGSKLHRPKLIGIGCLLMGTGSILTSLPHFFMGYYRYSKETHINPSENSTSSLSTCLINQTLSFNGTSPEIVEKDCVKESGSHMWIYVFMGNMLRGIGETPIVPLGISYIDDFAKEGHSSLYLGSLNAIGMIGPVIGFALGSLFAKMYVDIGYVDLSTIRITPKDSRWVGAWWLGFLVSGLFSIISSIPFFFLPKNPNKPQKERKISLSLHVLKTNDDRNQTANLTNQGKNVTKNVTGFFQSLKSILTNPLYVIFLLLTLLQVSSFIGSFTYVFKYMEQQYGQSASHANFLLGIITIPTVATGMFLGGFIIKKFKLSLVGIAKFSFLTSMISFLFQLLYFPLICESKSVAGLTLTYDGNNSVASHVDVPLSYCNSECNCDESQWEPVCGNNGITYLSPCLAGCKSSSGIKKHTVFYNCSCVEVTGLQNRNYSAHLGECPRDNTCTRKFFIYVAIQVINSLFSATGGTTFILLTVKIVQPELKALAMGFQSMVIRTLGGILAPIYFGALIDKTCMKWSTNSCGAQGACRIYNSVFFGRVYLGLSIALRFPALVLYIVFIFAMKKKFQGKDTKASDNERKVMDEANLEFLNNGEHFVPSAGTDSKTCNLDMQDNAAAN
Method: as §1

human OCT1 = target: T4, human OCT1 (Homo sapiens, UniProt O15245)
T4 sequence (O15245 1-554): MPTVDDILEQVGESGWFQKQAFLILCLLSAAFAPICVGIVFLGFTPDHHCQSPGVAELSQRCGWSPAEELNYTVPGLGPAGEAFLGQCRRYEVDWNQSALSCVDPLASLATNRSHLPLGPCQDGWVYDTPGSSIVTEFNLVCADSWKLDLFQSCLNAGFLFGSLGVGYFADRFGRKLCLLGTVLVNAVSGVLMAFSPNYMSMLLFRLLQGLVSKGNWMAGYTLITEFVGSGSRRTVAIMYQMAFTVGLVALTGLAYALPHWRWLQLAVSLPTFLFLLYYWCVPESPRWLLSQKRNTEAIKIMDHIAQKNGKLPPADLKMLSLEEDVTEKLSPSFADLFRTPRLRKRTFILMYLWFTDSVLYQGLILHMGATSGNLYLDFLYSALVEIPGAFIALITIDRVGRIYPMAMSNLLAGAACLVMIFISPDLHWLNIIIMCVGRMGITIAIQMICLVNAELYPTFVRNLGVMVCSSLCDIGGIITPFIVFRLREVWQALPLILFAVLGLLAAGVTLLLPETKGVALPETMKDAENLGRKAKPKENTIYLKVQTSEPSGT
Method: as §1

human BSEP = human BSEP (Homo sapiens, UniProt O95342)
human BSEP, sequence (O95342 whole entry): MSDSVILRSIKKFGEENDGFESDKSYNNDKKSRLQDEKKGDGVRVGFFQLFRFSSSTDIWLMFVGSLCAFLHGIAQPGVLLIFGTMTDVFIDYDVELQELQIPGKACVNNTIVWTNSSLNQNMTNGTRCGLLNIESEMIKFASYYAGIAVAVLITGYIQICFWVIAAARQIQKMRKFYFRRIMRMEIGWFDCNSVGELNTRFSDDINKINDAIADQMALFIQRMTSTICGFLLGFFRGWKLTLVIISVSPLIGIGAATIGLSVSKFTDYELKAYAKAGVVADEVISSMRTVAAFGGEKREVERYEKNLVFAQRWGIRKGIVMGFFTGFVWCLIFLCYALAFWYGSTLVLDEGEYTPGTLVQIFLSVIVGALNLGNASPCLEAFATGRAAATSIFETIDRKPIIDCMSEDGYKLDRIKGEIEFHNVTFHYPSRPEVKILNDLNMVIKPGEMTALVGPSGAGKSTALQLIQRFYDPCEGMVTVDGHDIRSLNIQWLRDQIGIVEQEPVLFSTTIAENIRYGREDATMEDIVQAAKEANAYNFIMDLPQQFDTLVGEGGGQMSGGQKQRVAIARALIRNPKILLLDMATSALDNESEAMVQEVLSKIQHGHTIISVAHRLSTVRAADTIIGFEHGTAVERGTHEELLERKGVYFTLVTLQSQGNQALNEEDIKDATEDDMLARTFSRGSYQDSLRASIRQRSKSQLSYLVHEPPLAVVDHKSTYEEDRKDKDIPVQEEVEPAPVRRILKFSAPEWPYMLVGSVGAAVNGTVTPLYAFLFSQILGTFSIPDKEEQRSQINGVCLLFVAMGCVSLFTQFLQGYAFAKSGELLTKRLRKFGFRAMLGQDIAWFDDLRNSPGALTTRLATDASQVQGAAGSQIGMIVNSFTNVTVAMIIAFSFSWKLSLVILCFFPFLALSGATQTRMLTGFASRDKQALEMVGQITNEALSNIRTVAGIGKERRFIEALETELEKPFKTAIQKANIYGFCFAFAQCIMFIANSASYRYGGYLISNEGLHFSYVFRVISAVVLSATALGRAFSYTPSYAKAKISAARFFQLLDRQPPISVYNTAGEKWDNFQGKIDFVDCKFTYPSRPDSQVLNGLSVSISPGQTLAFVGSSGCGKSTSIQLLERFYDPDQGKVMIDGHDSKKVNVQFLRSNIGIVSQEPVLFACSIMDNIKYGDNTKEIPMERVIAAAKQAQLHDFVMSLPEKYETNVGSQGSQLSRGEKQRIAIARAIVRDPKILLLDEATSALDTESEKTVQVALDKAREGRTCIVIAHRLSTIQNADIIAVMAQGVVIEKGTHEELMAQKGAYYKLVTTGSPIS
Method: as §1

human MDR1 = human MDR1 (Homo sapiens, UniProt P08183)
human MDR1, sequence (P08183 whole entry): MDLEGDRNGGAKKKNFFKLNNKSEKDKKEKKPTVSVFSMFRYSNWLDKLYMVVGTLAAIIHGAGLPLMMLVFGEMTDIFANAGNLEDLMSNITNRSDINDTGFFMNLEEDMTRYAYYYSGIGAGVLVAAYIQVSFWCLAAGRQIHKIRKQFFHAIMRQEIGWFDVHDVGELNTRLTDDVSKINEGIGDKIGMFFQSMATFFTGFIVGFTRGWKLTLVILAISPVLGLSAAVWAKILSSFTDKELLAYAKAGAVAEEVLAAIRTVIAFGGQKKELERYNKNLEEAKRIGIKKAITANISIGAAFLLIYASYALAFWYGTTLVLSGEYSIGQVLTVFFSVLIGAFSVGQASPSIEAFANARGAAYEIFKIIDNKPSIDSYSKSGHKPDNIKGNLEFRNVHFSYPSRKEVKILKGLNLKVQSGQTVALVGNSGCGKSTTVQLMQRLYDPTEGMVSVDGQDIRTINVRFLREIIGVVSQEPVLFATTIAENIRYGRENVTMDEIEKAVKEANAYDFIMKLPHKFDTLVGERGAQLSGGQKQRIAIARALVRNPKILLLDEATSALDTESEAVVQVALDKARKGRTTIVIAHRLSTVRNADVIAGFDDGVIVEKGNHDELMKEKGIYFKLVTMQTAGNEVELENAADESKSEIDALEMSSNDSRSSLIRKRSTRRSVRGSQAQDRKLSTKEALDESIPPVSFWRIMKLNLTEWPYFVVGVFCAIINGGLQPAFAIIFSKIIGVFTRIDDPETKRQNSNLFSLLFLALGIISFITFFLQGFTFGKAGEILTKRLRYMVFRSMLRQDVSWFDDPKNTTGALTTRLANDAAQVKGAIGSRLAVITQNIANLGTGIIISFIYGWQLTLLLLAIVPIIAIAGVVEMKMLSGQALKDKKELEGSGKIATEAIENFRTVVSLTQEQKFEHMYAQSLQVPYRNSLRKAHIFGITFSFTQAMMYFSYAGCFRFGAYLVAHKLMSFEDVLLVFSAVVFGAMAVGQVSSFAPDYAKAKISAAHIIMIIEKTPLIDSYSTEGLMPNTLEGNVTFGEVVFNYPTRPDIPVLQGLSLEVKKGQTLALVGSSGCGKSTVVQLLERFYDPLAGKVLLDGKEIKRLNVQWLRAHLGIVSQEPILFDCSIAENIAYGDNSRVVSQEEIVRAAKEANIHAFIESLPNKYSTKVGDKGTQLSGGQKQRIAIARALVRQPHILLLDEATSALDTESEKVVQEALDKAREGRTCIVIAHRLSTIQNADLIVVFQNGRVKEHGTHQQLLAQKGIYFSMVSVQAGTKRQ
Method: as §1

NC(=O)N[C@@H](CCC(=O)O)C(=O)O [carglumic acid, N-carbamoyl-L-glutamic acid]
not an inhibitor: Inhibition of human BCRP efflux transporter (human BCRP) | Inhibition of human MATE2-K uptake transporter (human MATE2-K) | Inhibition of human OCT2 uptake transporter (human OCT2) | Inhibition of human OATP1B3 uptake transporter (human OATP1B3) | Inhibition of human OCT1 uptake transporter (human OCT1) | Inhibition of human BSEP efflux transporter (human BSEP) | Inhibition of human MDR1 efflux transporter (human MDR1)
